# Data published in EP4434996A1, “MICELLES IN CANCER TREATMENT” (Commissariat à l'Energie Atomique et aux Energies …, priority 2023, dated 2024).
# Entries after “also recorded” stand apart in the source; their conditions may differ.
# Experiments:
# [1] = Detection of singlet oxygen with DPBF under 740 nm irradiation; format: physicochemical
# Protocol: Preparation of DPBF@C18-PEG2k and TPBC@C18-PEG2k. To a solution of C18-Fc-PEG2k (10 mg mL^-1) in water (1 mL) was added a solution of TPBC (bacteriochlorin) or DPBF (1,3-diphenylisobenzofuran) (12.5 µL, 1 mg mL^-1) in chloroform (1 mL). The mixture was sonicated using an ultrasound sonicator probe (power 40%, 10 min, pulse) allowing TPBC or DPBF to be gradually encapsulated by evaporation of chloroform via heating of the probe. The resulting TPBC/DPBF@C18-Fc-PEG2k colloidal suspension was filtered on 0.45 µm nylon membrane to eliminate any free TPBC or DPBF from the medium.
# Preparation of TPBC-DPBF@C18-PEG2k. To a solution of C18-Fc-PEG2k (10 mg mL^-1) in water (1 mL) was added a solution of TPBC (12.5 µL, 1 mg mL^-1) in chloroform (1 mL). The mixture was sonicated using an ultrasound sonicator probe (power 40%, 10 min, pulse) allowing TPBC to be gradually encapsulated by evaporation of chloroform via heating of the probe. […]
# 1,3-Diphenylisobenzofuran (DPBF) is a reagent for detecting singlet oxygen. […] The reaction was monitored using UV-vis spectroscopy (Fig. 8B). […]
# First, we ensured that both TPBC and DPBF could be encapsulated into our C18-PEG2k micelles individually. […] TPBC-DPBF@C18-PEG2k was then irradiated under 740 nm light and the photoreaction was monitored by UV-vis spectroscopy every 20 sec (Fig. 9C).
# [2] = Solubility in water by UV measurement; format: physicochemical; settings: without micelles
time to complete degradation of DPBF ([1]; DPBF and TPBC in DMSO) [s],"stability of DPBF under NIR light ([1]; in DMSO, several minutes, without TPBC)",SMILES,solubility in water [2]
60,,"c1ccc(-c2c3nc(c(-c4ccccc4)c4ccc([nH]4)c(-c4ccccc4)c4nc(c(-c5ccccc5)c5ccc2[nH]5)CC4)CC3)cc1 [TPBC, tetraphenylbacteriochlorin]",not soluble in water; also recorded: insoluble in water
,no alteration was observed,"c1ccc(-c2oc(-c3ccccc3)c3ccccc23)cc1 [DPBF, 1,3-diphenylisobenzofuran]",not soluble in water; also recorded: insoluble in water
